{
  "source": "patent US20140259191A1",
  "about": "“FISH ANESTHETIC AND METHOD” (AQUA-MOR TECHNOLOGIES LTD., priority 2011, published 2014)",
  "key": {"Guppy fish": {"test_system": "Guppy fish", "experiment": "Anesthesia of guppy fish by linalool or Ho Wood oil added to tank water", "format": "in vivo", "protocol": "A one year old koi fish of body length 11 cm and which appeared to be healthy was placed in a 4 liter tank containing water at 25° C. and in which the water was circulated by means of aeration. A liquid a mixture containing 1 wt. % synthetic linalool (1 wt. % linalool, 5 wt. % 14R, 2 wt. % AF80 and 92 wt. % water) was added to the tank and manually mixed with the water so that the concentration of linalool in the water was 50 ppm. This was regarding as the starting time of the experiment; thereafter, observations were made regularly to determine the behavior of the fish in water. This continued until no response to external stimulation and complete loss of equilibrium were observed, at which point the fish was transferred to a recovery tank containing fresh water. The fish was placed near the air pump, and the time until the fish again swam and responded normally to external stimulation was recorded.\nTo a one liter tank containing five guppy fingerlings 21-30 days old of weight 0.010-0.014 g and body length 0.5 cm in water at 30° C. and pH 7 was added a formulation containing 92.5% linalool. The formulation was added to the water to a linalool concentration of 50 ppm in the water. The fish became relaxed 5 minutes after addition of linalool and after 7 minutes were completely anesthetized. At 10 minutes the fish were removed to a recovery tank with fresh water. After two minutes in the recovery tank the fish resumed normal behavior.\nThe experiment of Example 21 was repeated, using four 10-month old Guppy fish of respective body lengths 3, 3.5, 4 and 3 cm, and adding the Ho Wood oil to a linalool concentration of 50 ppm in the water. […] At 14.5 minutes the fish were removed to a recovery tank with clean water. After two minutes in the recovery tank they swam around and appeared to have resumed normal activity.\nThe experiment of Example 21 was repeated, using four 10-month old Guppy fish of respective body lengths 4, 3.5, 3.5 and 3 cm, and adding the Ho Wood oil to a linalool concentration in the water of 75 ppm instead 50 ppm. […]"}, "catfish": {"test_system": "catfish", "experiment": "Anesthesia of catfish by linalool added to tank water", "format": "in vivo, Clarias gariepinus", "conditions": "100 ppm linalool", "protocol": "To a four liter tank containing […] 10-month old catfish (Clarias gariepinus) of respective weights 31 g, 14 g, 24 g and 9 g and respective body lengths 17 cm, 13 cm, 16 cm and 10 cm in water at 31° C. and pH 7 was added a formulation containing 1% linalool. The formulation was added to the water to a linalool concentration of 100 ppm in the water. The fish became relaxed 2 5 minutes after addition of linalool and after 4 minutes were completely anesthetized. At 5.5 minutes the fish were removed to a recovery tank with fresh water. After 7 minutes in the recovery tank the fish resumed normal behavior."}, "cyprinus carpio": {"test_system": "cyprinus carpio", "experiment": "Three-hour sedation of carp with 30 ppm linalool", "format": "in vivo", "protocol": "Three cyprinus carpio of 140 g average weight, each in a tank of 20 L water at 25° C., were exposed to linalool, added to each tank in a formulation containing 20 wt. % linalool, 5 wt. % Alkamuls 14/R (a non-ionic surfactant added as an emulsifier), 70 wt. % propylene glycol and 5 wt. % ethanol to a linalool concentration of 30 ppm in the water. Specimens were observed every 30 minutes after addition of linalool. […] After removal to a tank of untreated water, each of the fish returned to their initial state within five minutes."}, "carp fish": {"test_system": "carp fish", "experiment": "Anesthesia of carp by linalool added to tank water", "format": "in vivo, Cyprinus carpio", "conditions": "for time after addition of linalool until fish became relaxed / time until fish completely anesthetized: pH 7", "protocol": "To a 100 liter tank containing 462 10-month old carp fish (Cyprinus carpio) of average weight 70 g and average body length 10 cm, having water at 25° C. at pH 7 was added a formulation containing 1% linalool. The formulation was added to the water to a linalool concentration of 75 ppm in the water. The fish became relaxed 3 minutes after addition of linalool and after 5 minutes were completely anesthetized. After 15 minutes the fish were removed to a recovery tank with fresh water. After 20 minutes in the recovery tank the fish resumed normal behavior.\n(§1) To a 20 liter tank containing eight 2.5-year old carp fish of average weight 1 kg and average body length 50 cm in water at 20° C. and pH 7 was added a formulation containing 1% linalool. The formulation was added to the water to a linalool concentration of 100 ppm in the water. The fish became relaxed 2 minutes after addition of linalool and after 3 minutes were completely anesthetized. At 3 minutes the fish were removed to a recovery tank with fresh water. After 7 minutes in the recovery tank the fish resumed normal behavior.\nTo a 20 liter tank containing eight 1.8-year old carp fish of average weight 250 g and body length 21-24 cm in water at 20° C. and pH 7 was added a formulation containing 1% linalool. The formulation was added to the water to a linalool concentration of 50 ppm in the water. The fish became relaxed 3 minutes after addition of linalool and after 7 minutes were completely anesthetized. At 17 minutes the fish were removed to a recovery tank with fresh water. After 29 minutes in the recovery tank the fish resumed normal behavior.\nas §1, with “2.2-year” for “2.5-year”, “380 g” for “1 kg”, “and” for “and average”, “30-32” for “50”, “At 17” for “After 7”"}, "[1]": {"conditions": "Example 17: five guppy fingerlings, 50 ppm linalool (formulation containing 92.5% linalool), 30° C., pH 7"}, "[2]": {"conditions": "Example 13: 462 carp, average 70 g, 75 ppm linalool, 25° C."}, "[3]": {"conditions": "Example 14: eight carp, average 1 kg, 100 ppm linalool, 20° C."}, "[4]": {"conditions": "Example 15: eight carp, average 250 g, 50 ppm linalool, 20° C."}, "[5]": {"conditions": "Example 16: eight carp, average 380 g, 100 ppm linalool, 20° C."}},
  "data": [
    {"smiles": "C=CC(C)(O)CCC=C(C)C", "note": "(stereo not shown) [linalool]", "values": [
      {"measurement": "time after addition of linalool until fish became relaxed", "setting": "Guppy fish; [1]", "result": 5, "unit": "min"},
      {"measurement": "time until fish completely anesthetized", "setting": "Guppy fish; [1]", "result": 7, "unit": "min"},
      {"measurement": "time in recovery tank until normal behavior resumed", "setting": "Guppy fish; Example 17: guppy fingerlings, 50 ppm linalool, removed at 10 minutes", "result": "two"},
      {"measurement": "time until fish completely anesthetized", "setting": "catfish; Example 19: catfish 9-31 g, 31° C., pH 7", "result": 4, "unit": "min"},
      {"measurement": "time in recovery tank until normal behavior resumed", "setting": "catfish; Example 19: catfish, removed at 5.5 minutes", "result": 7, "unit": "min"},
      {"measurement": "time in untreated water until return to initial state", "setting": "cyprinus carpio; Example 28: carp 140 g, after three-hour exposure", "result": "five"},
      {"measurement": "handling state of the fish", "setting": "cyprinus carpio; Example 28: three carp 140 g, 25° C., at 30 minutes after exposure and for the duration of the three-hour exposure", "result": "easy to handle"},
      {"measurement": "time after addition of linalool until fish became relaxed", "setting": "carp fish; [2]", "result": 3, "unit": "min"},
      {"measurement": "time until fish completely anesthetized", "setting": "carp fish; [2]", "result": 5, "unit": "min"},
      {"measurement": "time in recovery tank until normal behavior resumed", "setting": "carp fish; Example 13: carp 70 g, 75 ppm linalool, removed after 15 minutes", "result": 20, "unit": "min"},
      {"measurement": "time in recovery tank until normal behavior resumed", "setting": "carp fish; Example 14: carp 1 kg, 100 ppm linalool, removed at 3 minutes", "result": 7, "unit": "min"},
      {"measurement": "time after addition of linalool until fish became relaxed", "setting": "carp fish; [3]", "result": 2, "unit": "min"},
      {"measurement": "time until fish completely anesthetized", "setting": "carp fish; [3]", "result": 3, "unit": "min"},
      {"measurement": "time in recovery tank until normal behavior resumed", "setting": "carp fish; Example 15: carp 250 g, 50 ppm linalool, removed at 17 minutes", "result": 29, "unit": "min"},
      {"measurement": "time after addition of linalool until fish became relaxed", "setting": "carp fish; [4]", "result": 3, "unit": "min"},
      {"measurement": "time until fish completely anesthetized", "setting": "carp fish; [4]", "result": 7, "unit": "min"},
      {"measurement": "time in recovery tank until normal behavior resumed", "setting": "carp fish; Example 16: carp 380 g, 100 ppm linalool, removed at 3 minutes", "result": 17, "unit": "min"},
      {"measurement": "time after addition of linalool until fish became relaxed", "setting": "carp fish; [5]", "result": 2, "unit": "min"},
      {"measurement": "time until fish completely anesthetized", "setting": "carp fish; [5]", "result": 3, "unit": "min"}
    ]}
  ]
}
